From US20260055120A1, “Bicyclic pyrimidinones as inhibitors of NOX4” (Boehringer Ingelheim International GmbH, priority 2024, published 2026)

What was measured:
[1] = molecular target: human NOX4 (hNOX4) (Homo sapiens (Human), UniProt Q9NPH5); assay: NOX4 inhibition assay (HyPerBlu); assay type: cell-based; settings: HEK293 cells overexpressing hNOX4, HyPerBlu
Experimental: NOX4 inhibition is assessed utilizing HEK293 cells stably overexpressing human NOX4 (hNOX4), generating constitutively high levels of hydrogen peroxide (H2O2). Cells are cultured in the Dulbecco's Modified Eagle Medium (DMEM) media containing 4.5 g/L glucose supplemented with 10% fetal calf serum and 250 μg/ml Zeocin in an incubator at 37° C. with 5% CO2. For the assay, cells are seeded in 384 well plates. […] After incubation Lumigen HyPerBlu™ is added and cells are incubated for additional 30 min at 24° C. in a humidified incubator. Next, luminescence is measured using an Envision Multimode Plate reader to determine levels of produced H2O2 in the wells.

[2] = molecular target: NOX4 (Homo sapiens (Human), UniProt Q9NPH5); settings: modified human embryonic kidney (HEK) cells, Amplex Red as detecting reagent; read-out: NOX4 IC50 as disclosed in WO2016207785; cited from earlier work
NOX4, sequence (Q9NPH5 whole entry, species assumed): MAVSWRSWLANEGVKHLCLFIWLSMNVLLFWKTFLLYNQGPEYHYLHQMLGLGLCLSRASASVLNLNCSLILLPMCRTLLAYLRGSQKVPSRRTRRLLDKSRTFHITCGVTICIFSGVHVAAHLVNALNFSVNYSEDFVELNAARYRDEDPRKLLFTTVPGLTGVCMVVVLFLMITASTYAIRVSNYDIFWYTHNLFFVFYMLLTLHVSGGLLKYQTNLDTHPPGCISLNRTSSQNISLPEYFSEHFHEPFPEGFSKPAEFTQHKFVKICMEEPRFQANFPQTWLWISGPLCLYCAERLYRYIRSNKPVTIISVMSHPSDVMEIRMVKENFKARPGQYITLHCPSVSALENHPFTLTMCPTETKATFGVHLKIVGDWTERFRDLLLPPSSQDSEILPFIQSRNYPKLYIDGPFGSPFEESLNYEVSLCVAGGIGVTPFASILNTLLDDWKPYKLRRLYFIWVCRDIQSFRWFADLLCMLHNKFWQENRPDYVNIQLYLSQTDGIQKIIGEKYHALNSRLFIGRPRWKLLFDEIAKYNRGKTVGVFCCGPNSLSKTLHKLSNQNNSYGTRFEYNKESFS
NOX4, sequence (P13498 2-195 partner, species assumed): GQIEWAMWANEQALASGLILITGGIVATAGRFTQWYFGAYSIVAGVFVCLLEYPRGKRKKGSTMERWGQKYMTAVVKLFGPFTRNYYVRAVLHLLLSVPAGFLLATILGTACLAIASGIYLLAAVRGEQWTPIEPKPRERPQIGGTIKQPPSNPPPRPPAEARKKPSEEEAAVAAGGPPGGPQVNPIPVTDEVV

human NOX4 (hNOX4), sequence (Q9NPH5 whole entry): as the sequence (Q9NPH5 whole entry, species assumed) above
human NOX4 (hNOX4), sequence (P13498 2-195 partner): as the sequence (P13498 2-195 partner, species assumed) above

O=c1c2ncccc2nc(SCc2ccccc2F)n1-c1ccc(Cl)cc1 [WO2005049613 example 59]
IC50 [1]: 79 µM

O=C(Nc1ccc2oc(N3CCC34COC4)nc2c1)c1ccc2c(c1)CCO2 [WO2016207785 example 15]
IC50 [2]: 0.4 µM
